In ChEMBL document CHEMBL1201862, “PubChem BioAssay data set” (2004):
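Five compound concentrations were applied to cells in 96-well plates for 48 hours; endpoints were derived by simple linear interpolation of the resulting dose-response curve. Abbreviation: GI50, concentration required for 50% inhibition of growth.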 Activity calls are given as the source filed them. No stated cut-off is given here; in the data, active = GI50 up to about 1.1 µM and inactive = higher.

Legend:
Assay in all cases: growth of human tumour cells (NCI), 48 h
[1] = system: TK-10
[2] = system: RPMI-8226
[3] = system: MDA-MB-435
[4] = system: UACC-62
[5] = system: UO-31
[6] = system: HCT-15
[7] = system: SNB-75
[8] = system: SK-OV-3
[9] = system: HT-29
[10] = system: COLO 205
[11] = system: HOP-62
[12] = system: K562
[13] = system: BT-549
[14] = system: CAKI-1
[15] = system: SK-MEL-5
[16] = system: Malme-3M
[17] = system: A549
[18] = system: SN12C
[19] = system: NCI/ADR-RES
[20] = system: U-251
[21] = system: SW-620
[22] = system: SK-MEL-2
[23] = system: MDA-MB-231
[24] = system: 786-0
[25] = system: SF-539
[26] = system: OVCAR-4
[27] = system: RXF 393
[28] = system: MDA-N
[29] = system: NCI-H522
[30] = system: HCT-116
[31] = system: DU-145
[32] = system: MOLT-4
[33] = system: EKVX
[34] = system: HCC 2998
[35] = system: OVCAR-5
[36] = system: SF-268
[37] = system: T47D
[38] = system: UACC-257
[39] = system: SNB-19
[40] = system: SF-295
[41] = system: CCRF-CEM
[42] = system: M14
[43] = system: ACHN
[44] = system: KM12
[45] = system: PC-3
[46] = system: LOX IMVI
[47] = system: SK-MEL-28
[48] = system: OVCAR-8
[49] = system: OVCAR-3
[50] = system: MCF7
[51] = system: NCI-H23
[52] = system: IGROV-1
[53] = system: NCI-H460
[54] = system: A498
[55] = system: SR
[56] = system: HL-60
[57] = system: NCI-H226
[58] = system: Hs-578T
[59] = system: HOP-92

## COc1ccc(N[C@H](C[S+]([O-])c2ccc(C)cc2)c2ccc(F)cc2)cc1 (some centres undefined)
[1]
  GI50: > 100 µM (inactive)
[2]
  GI50: > 100 µM (inactive)
[3]
  GI50: > 100 µM (inactive)
[4]
  GI50: 34.4 µM (inactive)
[5]
  GI50: > 100 µM (inactive)
[6]
  GI50: 27.5 µM
[7]
  GI50: 27.2 µM (inactive)
[8]
  GI50: 72.3 µM (inactive)
[9]
  GI50: > 100 µM (inactive)
[10]
  GI50: > 100 µM (inactive)
[11]
  GI50: 33.7 µM (inactive)
[12]
  GI50: > 100 µM (inactive)
[13]
  GI50: > 100 µM (inactive)
[14]
  GI50: > 100 µM (inactive)
[15]
  GI50: 12.9 µM (inactive)
[16]
  GI50: 31.9 µM (inactive)
[17]
  GI50: 43 µM (inactive)
[18]
  GI50: 54.3 µM (inactive)
[19]
  GI50: 26.9 µM (inactive)
[20]
  GI50: 44.5 µM (inactive)
[21]
  GI50: > 100 µM (inactive)
[22]
  GI50: > 100 µM (inactive)
[23]
  GI50: 40.5 µM (inactive)
[24]
  GI50: 65.3 µM (inactive)
[25]
  GI50: 22.3 µM (inactive)
[26]
  GI50: 94.2 µM (inactive)
[27]
  GI50: 48.4 µM (inactive)
[28]
  GI50: 39.3 µM (inactive)
[29]
  GI50: 13.2 µM (inactive)
[30]
  GI50: > 100 µM (inactive)
[31]
  GI50: 96.6 µM (inactive)
[32]
  GI50: > 100 µM (inactive)
[33]
  GI50: > 100 µM (inactive)
[34]
  GI50: > 100 µM (inactive)
[35]
  GI50: > 100 µM (inactive)
[36]
  GI50: 24.7 µM (inactive)
[37]
  GI50: 10.3 µM (inactive)
[38]
  GI50: > 100 µM (inactive)
[39]
  GI50: 35.8 µM (inactive)
[40]
  GI50: 41.8 µM (inactive)
[41]
  GI50: > 100 µM (inactive)
[42]
  GI50: 64.3 µM (inactive)
[43]
  GI50: 52.6 µM (inactive)
[44]
  GI50: > 100 µM (inactive)
[45]
  GI50: 82.4 µM (inactive)
[46]
  GI50: > 100 µM (inactive)
[47]
  GI50: > 100 µM (inactive)
[48]
  GI50: > 100 µM (inactive)
[49]
  GI50: > 100 µM (inactive)
[50]
  GI50: 16.6 µM (inactive)
[51]
  GI50: 13.2 µM (inactive)
[52]
  GI50: < 0.01 µM (active)
[53]
  GI50: 91.2 µM (inactive)

## COc1ccc(/C=N/CCC/N=C/c2ccc(OC)cc2O)c(O)c1
[1]
  GI50: > 100 µM (inactive)
[2]
  GI50: 38.3 µM (inactive)
[3]
  GI50: 46.1 µM (inactive)
[4]
  GI50: 27 µM (inactive)
[54]
  GI50: > 100 µM (inactive)
[5]
  GI50: 46 µM (inactive)
[6]
  GI50: 37.5 µM
[7]
  GI50: 13.9 µM (inactive)
[9]
  GI50: 97.3 µM (inactive)
[11]
  GI50: > 100 µM (inactive)
[55]
  GI50: 54.6 µM (inactive)
[12]
  GI50: 69 µM (inactive)
[13]
  GI50: 48.9 µM (inactive)
[16]
  GI50: 23.8 µM (inactive)
[17]
  GI50: > 100 µM (inactive)
[18]
  GI50: 26.1 µM (inactive)
[20]
  GI50: 40.6 µM (inactive)
[21]
  GI50: 57.9 µM (inactive)
[22]
  GI50: 34.8 µM (inactive)
[23]
  GI50: 38.7 µM (inactive)
[24]
  GI50: 76.6 µM (inactive)
[26]
  GI50: 36.8 µM (inactive)
[27]
  GI50: > 100 µM (inactive)
[29]
  GI50: > 100 µM (inactive)
[30]
  GI50: 71.9 µM (inactive)
[31]
  GI50: 37.8 µM (inactive)
[32]
  GI50: 49.1 µM (inactive)
[33]
  GI50: 29.3 µM (inactive)
[35]
  GI50: 64.4 µM (inactive)
[38]
  GI50: 36.6 µM (inactive)
[39]
  GI50: 47 µM (inactive)
[40]
  GI50: 17.7 µM (inactive)
[41]
  GI50: 29.6 µM (inactive)
[42]
  GI50: 75.3 µM (inactive)
[43]
  GI50: 48.6 µM (inactive)
[44]
  GI50: 47.4 µM (inactive)
[56]
  GI50: 39.9 µM (inactive)
[57]
  GI50: 16.7 µM (inactive)
[45]
  GI50: 42 µM (inactive)
[47]
  GI50: 41 µM (inactive)
[48]
  GI50: 35.6 µM (inactive)
[49]
  GI50: 16 µM (inactive)
[58]
  GI50: 22 µM (inactive)
[59]
  GI50: 17.6 µM (inactive)
[50]
  GI50: 55.7 µM (inactive)
[51]
  GI50: > 100 µM (inactive)
[52]
  GI50: 43.4 µM (inactive)
[53]
  GI50: > 100 µM (inactive)

## COC(=O)NC(=O)NC(Cc1ccccc1)NC(=O)OCc1ccccc1 (centres undefined)
[1]
  GI50: 45.4 µM (inactive)
[2]
  GI50: > 100 µM (inactive)
[3]
  GI50: > 100 µM (inactive)
[4]
  GI50: > 100 µM (inactive)
[54]
  GI50: 30.3 µM (inactive)
[5]
  GI50: 30.9 µM (inactive)
[6]
  GI50: > 100 µM
[7]
  GI50: 20.2 µM (inactive)
[8]
  GI50: 18 µM (inactive)
[9]
  GI50: > 100 µM (inactive)
[10]
  GI50: > 100 µM (inactive)
[11]
  GI50: 47.2 µM (inactive)
[55]
  GI50: > 100 µM (inactive)
[12]
  GI50: > 100 µM (inactive)
[13]
  GI50: 31.1 µM (inactive)
[14]
  GI50: > 100 µM (inactive)
[15]
  GI50: > 100 µM (inactive)
[16]
  GI50: > 100 µM (inactive)
[17]
  GI50: 97.7 µM (inactive)
[18]
  GI50: > 100 µM (inactive)
[19]
  GI50: > 100 µM (inactive)
[20]
  GI50: 44.1 µM (inactive)
[21]
  GI50: > 100 µM (inactive)
[22]
  GI50: 63.2 µM (inactive)
[23]
  GI50: 18.5 µM (inactive)
[24]
  GI50: 37.8 µM (inactive)
[25]
  GI50: 19.6 µM (inactive)
[26]
  GI50: > 100 µM (inactive)
[27]
  GI50: 20.5 µM (inactive)
[28]
  GI50: > 100 µM (inactive)
[29]
  GI50: 28.3 µM (inactive)
[30]
  GI50: 39.3 µM (inactive)
[31]
  GI50: > 100 µM (inactive)
[32]
  GI50: > 100 µM (inactive)
[33]
  GI50: > 100 µM (inactive)
[34]
  GI50: > 100 µM (inactive)
[35]
  GI50: > 100 µM (inactive)
[36]
  GI50: 48.1 µM (inactive)
[37]
  GI50: > 100 µM (inactive)
[38]
  GI50: > 100 µM (inactive)
[39]
  GI50: 42.7 µM (inactive)
[40]
  GI50: 35.5 µM (inactive)
[41]
  GI50: > 100 µM (inactive)
[42]
  GI50: > 100 µM (inactive)
[43]
  GI50: > 100 µM (inactive)
[44]
  GI50: > 100 µM (inactive)
[56]
  GI50: > 100 µM (inactive)
[57]
  GI50: > 100 µM (inactive)
[45]
  GI50: > 100 µM (inactive)
[46]
  GI50: > 100 µM (inactive)
[47]
  GI50: > 100 µM (inactive)
[48]
  GI50: 74.1 µM (inactive)
[49]
  GI50: > 100 µM (inactive)
[59]
  GI50: 18.1 µM (inactive)
[50]
  GI50: > 100 µM (inactive)
[51]
  GI50: 40.3 µM (inactive)
[52]
  GI50: 70.8 µM (inactive)
[53]
  GI50: > 100 µM (inactive)
